Converted amounts (≈) assume the structure as drawn.
target: T1, human MIF (Homo sapiens (Human), UniProt P14174); assay: Inhibition of tautomerase activity of human MIF (HPP substrate); type: biochemical; settings: MIF tautomerase, HPP substrate, 50 nM MIF

Compound | Ki [µM]
COc1cccc2ccc(-c3cn(-c4ccc(F)cc4)nn3)nc12 [Example 14, 2-(1-(4-Fluorophenyl)-1H-1,2,3-triazol-4-yl)-8-methoxyquinoline] | 56
Oc1ccc(-n2cc(-c3ccc4cc(OCCCN5CCOCC5)ccc4n3)nn2)cc1 [Example 19, 4-(4-(6-(3-Morpholinopropoxy)quinolin-2-yl)-1H-1,2,3-triazol-1-yl)phenol] | 1.95
NCc1cccc(Oc2cccc3nc(-c4cn(-c5ccc(O)c(F)c5)nn4)ccc23)c1 [Example 37, 4-(4-(5-(3-(Aminomethyl)phenoxy)quinolin-2-yl)-1H-1,2,3-triazol-1-yl)-2-fluorophenol] | 0.568
Oc1c(F)cc(-n2cc(-c3ccc4cc(OCCOCCN5CCOCC5)ccc4n3)nn2)cc1F [Example 33, 2,6-Difluoro-4-(4-(6-(2-(2-morpholinoethoxy)ethoxy)quinolin-2-yl)-1H-1,2,3-triazol-1-yl)phenol] | 3.75
Oc1ccc(-n2cc(-c3ccc4ccc(OCCOCCN5CCOCC5)cc4n3)nn2)cc1F [Example 30, 2-Fluoro-4-(4-(7-(2-(2-morpholinoethoxy)ethoxy)quinolin-2-yl)-1H-1,2,3-triazol-1-yl)phenol] | 0.29
Oc1ccc(-n2cc(-c3ccc4ccc(OCCOCCN5CCOCC5)cc4n3)nn2)cc1 [Example 29, 4-(4-(7-(2-(2-Morpholinoethoxy)ethoxy)quinolin-2-yl)-1H-1,2,3-triazol-1-yl)phenol] | 0.85
Cc1cc2ccccc2nc1-c1cn(-c2ccc(O)cc2)nn1 [Example 11, 4-(4-(3-Methylquinolin-2-yl)-1H-1,2,3-triazol-1-yl)phenol] | 7.3
O=C(O)COc1ccc2ccc(-c3cn(-c4ccc(O)c(F)c4)nn3)nc2c1 [Example 41, 2-((2-(1-(3-Fluoro-4-hydroxyphenyl)-1H-1,2,3-triazol-4-yl)quinolin-7-yl)oxy)acetic acid] | 2.24
COCCOc1cccc(Oc2cccc3nc(-c4cn(-c5ccc(O)c(F)c5)nn4)ccc23)c1 [Example 25, 2-Fluoro-4-(4-(5-(3-(2-methoxyethoxy)phenoxy)quinolin-2-yl)-1H-1,2,3-triazol-1-yl)phenol] | 0.082
Cc1cc2cc(OCCCN3CCOCC3)ccc2nc1-c1cn(-c2ccc(O)cc2)nn1 [Example 20, 4-(4-(3-Methyl-6-(3-morpholinopropoxy)quinolin-2-yl)-1H-1,2,3-triazol-1-yl)phenol] | 3.12
Oc1ccc(-n2cc(-c3ccc4cccc(Oc5ccccc5)c4n3)nn2)cc1 [Example 17, 4-(4-(8-Phenoxyquinolin-2-yl)-1H-1,2,3-triazol-1-yl)phenol] | 2.95

Results, then the compound that gave them:

Ki [µM] | Compound
0.045 | O=C(O)COCCOc1ccc2nc(-c3cn(-c4ccc(O)c(F)c4)nn3)ccc2c1 [Example 44, 2-(2-((2-(1-(3-Fluoro-4-hydroxyphenyl)-1H-1,2,3-triazol-4-yl)quinolin-6-yl)oxy)ethoxy)acetic acid]
29.6 | Fc1ccc(-n2cc(-c3ccc4cc(OCCOCCN5CCOCC5)ccc4n3)nn2)cc1 [Example 23, 4-(2-(2-((2-(1-(4-Fluorophenyl)-1H-1,2,3-triazol-4-yl)quinolin-6-yl)oxy)ethoxy)ethyl)morpholine]
64 | COCCOc1cccc2ccc(-c3cn(-c4ccc(F)cc4)nn3)nc12 [Example 15, 2-(1-(4-Fluorophenyl)-1H-1,2,3-triazol-4-yl)-8-(3-methoxyethoxy)quinoline]

same assay, conditions: read-out: % inhibition at 10 μM

Compound | inhibition at 10 µM [%]
COCCOc1ccc2nc(-c3cn(-c4ccc(O)c(C)c4)nn3)ccc2c1 [Example 9, 4-(4-(6-(2-Methoxyethoxy)quinolin-2-yl)-1H-1,2,3-triazol-1-yl)-2-methylphenol] | 15
COc1ccc(-c2cccc3ccc(-c4cn(-c5ccc(O)cc5)nn4)nc23)cc1 [Example 16, 4-(4-(8-(4-Methoxyphenyl)quinolin-2-yl)-1H-1,2,3-triazol-1-yl)phenol] | 21
COCCOc1ccc(-c2cn(-c3ccc(Cl)cc3)nn2)nc1 [Example 4, 2-(1-(4-Chlorophenyl)-1H-1,2,3-triazol-4-yl)-5-(2-methoxyethoxy)pyridine] | 3
COCCOc1ccc2nc(-c3cn(-c4ccc(C#N)cc4)nn3)ccc2c1 [Example 7, 4-(4-(6-(2-Methoxyethoxy)quinolin-2-yl)-1H-1,2,3-triazol-1-yl)benzonitrile] | 8
COCCOc1ccc2nc(-c3cn(-c4ccc(N)cc4)nn3)ccc2c1 [Example 5, 4-(4-(6-(2-Methoxyethoxy)quinolin-2-yl)-1H-1,2,3-triazol-1-yl)aniline] | 13

system: not listed separately; assay: Aqueous solubility; type: physicochemical; settings: aqueous solvent (not further specified), μg compound/mL solvent

Compound | solubility [µg/mL]
O=C(O)c1cccc(Oc2cccc3nc(-c4cn(-c5ccc(O)c(F)c5)nn4)ccc23)c1 [Example 32, 3-((2-(1-(3-Fluoro-4-hydroxyphenyl)-1H-1,2,3-triazol-4-yl)quinolin-5-yl)oxy)benzoic acid] | 47.2 (≈ 107 µM)
O=C(O)CCCOc1ccc2nc(-c3cn(-c4ccc(O)c(F)c4)nn3)ccc2c1 [Example 43, 4-((2-(1-(3-Fluoro-4-hydroxyphenyl)-1H-1,2,3-triazol-4-yl)quinolin-6-yl)oxy)butanoic acid] | 19.2 (≈ 47 µM)
Oc1ccc(-n2cc(-c3ccc4cc(OCCOCCN5CCOCC5)ccc4n3)nn2)cc1F [Example 22, 2-Fluoro-4-(4-(6-(2-(2-morpholinoethoxy)ethoxy)quinolin-2-yl)-1H-1,2,3-triazol-1-yl)phenol] | 27.2 (≈ 56.7 µM)
Oc1ccc(-n2cc(-c3ccc4ccccc4n3)nn2)cc1 [Example 1, 4-(4-(Quinolin-2-yl)-1H-1,2,3-triazol-1-yl)phenol] | 2.2 (≈ 7.63 µM)

Second part, the compound after the results:

solubility [µg/mL] | Compound
9.1 (≈ 22.2 µM) | NCCOCCOc1ccc2nc(-c3cn(-c4ccc(O)c(F)c4)nn3)ccc2c1 [Example 34, 4-(4-(6-(2-(2-Aminoethoxy)ethoxy)quinolin-2-yl)-1H-1,2,3-triazol-1-yl)-2-fluorophenol]
364 (≈ 1010 µM) | O=C(O)COc1ccc2nc(-c3cn(-c4ccc(O)cc4)nn3)ccc2c1 [Example 45]
13.9 (≈ 35.5 µM) | NCCOCCOc1ccc2nc(-c3cn(-c4ccc(O)cc4)nn3)ccc2c1 [Example 28, 4-(4-(6-(2-(2-Aminoethoxy)ethoxy)quinolin-2-yl)-1H-1,2,3-triazol-1-yl)phenol]
3.6 (≈ 9.93 µM) | COCCOc1ccc2nc(-c3cn(-c4ccc(O)cc4)nn3)ccc2c1 [Example 2, 4-(4-(6-(2-Methoxyethoxy)quinolin-2-yl)-1H-1,2,3-triazol-1-yl)phenol]
48.5 (≈ 105 µM) | Oc1ccc(-n2cc(-c3ccc4cc(OCCOCCN5CCOCC5)ccc4n3)nn2)cc1 [Example 21, 4-(4-(6-(2-(2-Morpholinoethoxy)ethoxy)quinolin-2-yl)-1H-1,2,3-triazol-1-yl)phenol]
867 (≈ 2040 µM) | O=C(O)COCCOc1ccc2nc(-c3cn(-c4ccc(O)c(F)c4)nn3)ccc2c1 [Example 44, 2-(2-((2-(1-(3-Fluoro-4-hydroxyphenyl)-1H-1,2,3-triazol-4-yl)quinolin-6-yl)oxy)ethoxy)acetic acid]

target: T1, human MIF; assay: X-ray crystallography of complexes with human MIF; type: binding; settings: not given
Protocol: The solution was centrifuged at 13,000×g to remove precipitated compound and used to set up hanging-drop crystallization experiments. A reservoir of 2.0 M ammonium sulfate, 0.1 M Tris pH 7, and 3% isopropanol was added to the protein solution in a 1:1 ratio and stored at 20° C. Diffraction-quality crystals with a rod morphology grew within two weeks. The crystals were cryo-protected in 25% glycerol, 2.0M ammonium sulfate, 0.1 M Tris pH 7, and 3% isopropanol. Data was collected at the Advanced Photon Source remotely on the NE-CAT 24-ID-E beam line. […] Crystals were obtained by the hanging-drop method at 20° C. A reservoir of 2.2 M ammonium sulfate, 0.1 M Tris pH 7, and 3% isopropanol mixed in a 1:1 ratio with rhMIF (16 mg/mL) was used to produce 2 μL drops. […] Crystals were cryo-protected with 25% glycerol, 2.2 M ammonium sulfate, 0.1 M Tris pH 7, and 3% isopropanol. […] HKL2000 was used to index, integrate, and scale the MIF-3a data set in the […] space group and the MIF-3b in the P212121 space group. Phases were obtained by molecular replacement with PDB file 3U18 using the CCP4 and PHASER programs. Model building was performed in COOT with iterative restrained refinement with REFMAC.

Compound | binding site from X-ray crystal structure of complex
COCCOc1ccc2nc(-c3cn(-c4ccc(O)cc4)nn3)ccc2c1 [Example 3b, 4-(4-(6-(2-methoxyethoxy)quinolin-2-yl)-1H-1,2,3-triazol-1-yl)phenol] | confirm the binding of these inhibitors in the tautomerase active site
Oc1ccc(-n2cc(-c3ccc4cc(OCCOCCN5CCOCC5)ccc4n3)nn2)cc1 [Example 3v, 4-(4-(6-(2-(2-morpholinoethoxy)ethoxy)quinolin-2-yl)-1H-1,2,3-triazol-1-yl)phenol] | confirm the binding of these inhibitors in the tautomerase active site
Oc1ccc(-n2cc(-c3ccc4ccccc4n3)nn2)cc1 [Example 3a, 4-(4-(quinolin-2-yl)-1H-1,2,3-triazol-1-yl)phenol] | confirm the binding of these inhibitors in the tautomerase active site

— patent US10336721B2, “Biaryltriazole inhibitors of macrophage migration inhibitory factor” (YALE UNIVERSITY, priority 2015, dated 2019)
